Common to all, as to assay type: functional
The subject of assay [1] is Plasmodium berghei. Kind of assay: In vivo antimalarial activity against Plasmodium berghei in mice (Mus musculus) at 160 mg/kg dose as mean survival time.
Assay [2] has as its system Plasmodium berghei. Kind of assay: In vivo antimalarial activity against Plasmodium berghei in mice (Mus musculus) at 80 mg/kg dose as mean survival time.
The subject of assay [3] is Plasmodium berghei. Kind of assay: In vivo antimalarial activity against Plasmodium berghei in mice (Mus musculus) at 20 mg/kg dose as mean survival time.
For assay [4], the system named is Plasmodium berghei. Kind of assay: In vivo antimalarial activity against Plasmodium berghei in mice (Mus musculus) at 160 mg/kg dose as mean survival time of mice (Mus musculus) after 60 days.
Assay [5] concerns Plasmodium berghei. Kind of assay: In vivo antimalarial activity against Plasmodium berghei in mice (Mus musculus) at 40 mg/kg dose as mean survival time.
Assay [6] deals with Plasmodium berghei. Kind of assay: In vivo antimalarial activity against Plasmodium berghei in mice (Mus musculus) at 20 mg/kg as mean survival time.
For assay [7], the system named is Plasmodium berghei. Kind of assay: In vivo antimalarial activity against Plasmodium berghei in mice (Mus musculus) at 40 mg/kg dose as mean survival time after 60 days.

Turning to `C[C@@H]1CC[C@H]2[C@@H](C)CO[B-]3(OC[C@H](C)[C@@H]4CC[C@@H](C)C[C@H]4O3)O[C@@H]2C1.[Na+]` (stereo partly drawn), the Mean survival time in the assay on Plasmodium berghei [1] stood at 12.6 days; in the assay with Plasmodium berghei [2], 10.8 days; with Plasmodium berghei [3], 9 days; in the assay on Plasmodium berghei [4] it was 28.6 days; in the assay on Plasmodium berghei [5] it was 9.6 days.
In the same order, the values of `CCOC(=O)/C=C/CC(C)CCC=C(C)C` (stereo not drawn) are 12.4 days, 10.4 days, 6 days, 29.6 days and 8.2 days.
For the compound `CCOC(=O)/C=C/C=C(\C)CCC1OC1(C)C` (stereo not drawn), the Mean survival time in the assay with Plasmodium berghei [1] came to 12.6 days; in the assay on Plasmodium berghei [2], 9.2 days; in the assay with Plasmodium berghei [3], 7.8 days; in the assay on Plasmodium berghei [4] it was 30.4 days; in the assay with Plasmodium berghei [5] it was 8.6 days.
For `C[C@@H]1CC[C@@H]([C@@H](C)CO)[C@H](O)C1`, the Mean survival time was determined as 8.2 days with Plasmodium berghei [1], 7 days in the assay with Plasmodium berghei [2], 5.4 days with Plasmodium berghei [6] and 6.2 days in the assay with Plasmodium berghei [5].
For the compound `CCOC(=O)C(O)C1OC(C(C)(C)O)CCC1C` (stereo not drawn), the Mean survival time in the assay on Plasmodium berghei [1] was 11.4 days; in the assay with Plasmodium berghei [2], 8.4 days; with Plasmodium berghei [6] it was 6.4 days; with Plasmodium berghei [5], 7.2 days.
Consider `CCOC(=O)/C=C/C=C(C)C`, for which the Mean survival time in the assay with Plasmodium berghei [1] worked out at 8.8 days; in the assay with Plasmodium berghei [2] it was 7.4 days; with Plasmodium berghei [3], 5.4 days; in the assay on Plasmodium berghei [5], 6 days.
Regarding `CCOC(=O)/C=C/C(C)CCC=C(C)C` (stereo not drawn), the Mean survival time was 8 days in the assay with Plasmodium berghei [1], 7.2 days in the assay with Plasmodium berghei [2], 5.4 days in the assay on Plasmodium berghei [3] and 6 days in the assay on Plasmodium berghei [5].
As to `C[C@@H]1CC[C@H]2[C@@H](C)C(=O)O[C@@H]3O[C@@]4(C)CC[C@@H]1[C@]32OO4` [ARTEMISININ], the values for the Mean survival time in the assay with Plasmodium berghei [7] and in the assay on Plasmodium berghei [3] were 30.6 days and 10.8 days, respectively.

(Values after ChEMBL document CHEMBL1125207, “Monoterpenic fragment analogues of aplasmomycin as potential antimalarial” (1991).)
